Article PMC12430544 (Molecules, 2025)
Where “and” joins values, the source holds several entries; their conditions need not be identical. Identical values can stand only once.

Experiments:
[1] = target: T1, butyrylcholinesterase (BuChE, from horse serum) (Equus caballus, UniProt P81908); test: biochemical; conditions: equine serum BuChE, Ellman's method, pH 7.4; means ± SEM of at least three experiments; read-out: IC50 BuChE Inhibition
T1 construct: purchased Sigma-Aldrich
Method: (§1) Cholinesterase (ChE) inhibitory activity was evaluated using a modified Ellman’s spectrophotometric method. Acetylcholinesterase (AChE, from electric eel), butyrylcholinesterase (BuChE, from equine serum), 5,5′-dithiobis-(2-nitrobenzoic acid) (Ellman’s reagent, DTNB), S-butyrylthiocholine iodide (BTCI), acetylthiocholine iodide (ATCI), and tarcine hydrochloride were purchased from Sigma-Aldrich. Tarcine hydrochloride was used as a reference standard. All the assays were carried out in 0.1 M KH2PO4/K2HPO4 buffer (pH = 7.4). Stock solutions of tested compounds (10 mM) were prepared in DMSO (below 0.5%, v/v) and diluted in phosphate buffer. The assay was performed in 96-well plate by adding 25 μL of 1 mM acetylthiocholine iodide or butyrylthiocholine iodide used as substrate in the assay, 125 μL of 1 mM 5,5′-dithiobis-(2-nitrobenzoic acid) (DTNB), 25 μL of 0.1 M phosphate buffer (pH = 7.4), 25 μL of testing substance in various concentrations, and 50 μL of 0.2 Units/mL AChE from an electric eel or BuChE from equine serum, respectively. At least five concentrations of the test compounds were assayed. […] The enzyme activity and the percentage inhibition were determined.

[2] = target: T2, acetylcholinesterase (AChE, from an electric eel) (Electrophorus electricus, UniProt O42275); test: biochemical; conditions: for IC50: electric eel AChE, Ellman's method, pH 7.4, means ± SEM of at least three experiments, read-out: IC50 AChE Inhibition; for Selectivity Index = IC50 (AChE)/IC50 (BuChE): ratio of eeAChE and equine BuChE IC50
T2 construct: purchased Sigma-Aldrich
Method: as §1

Aβ1–42 = target: T3, Aβ1–42 (Homo sapiens, UniProt P05067); test: Inhibition of self-induced Aβ1–42 aggregation (ThT fluorescence); assay type: biochemical; conditions: 20 μM compound, thioflavin-T fluorescence, mean ± SD of at least three independent experiments; read-out: Aβ Aggregation Inhibition (%), self-induced Aβ1–42
T3 construct: aggregation of Aβ1–42 synthetic peptide into fibrils
Method: Self-induced Aβ1–42 aggregation of all the compounds we obtained was also evaluated. […] ThT is a histochemical dye that is known to bind to the peptide β-sheet conformation, which is the predominant secondary structure of amyloid-beta fibrils. […] The inhibition studies were carried out upon incubating Aβ1–42 with and without the compounds.
Aβ1–42 was dissolved in 100% 1,1,1,3,3,3-[…] (HFIP) to a concentration of 1 mg/mL, sonicated in a water bath overnight, aliquoted into microcentrifuge tubes, dried under vacuum, and stored at −20 °C. Immediately prior to use, the HFIP-treated Aβ1–42 was dissolved in dimethylsulfoxide (DMSO) as the stored solution. […] Amounts of 5 μL of compound (200 μM) and 5 μL of 200 μM Aβ1–42 were added into 40 μL of phosphate-buffered saline (PBS at pH 7.4). After incubation at room temperature on a thermostatic shaker for 72 h, 100 μL of 5 μM ThT solution (in PBS at pH 7.4) was added to the reaction solution. […] The Aβ1–42 aggregation inhibition percentage was calculated using the following formula: inhibition percentage = (F1 − F2)/(F1 − F0) × 100%.

[3] = Metal chelation by UV–vis spectrometry (Fe); assay type: physicochemical
Method: (§2) Given the 8-hydroxy(amino)quinoline moiety with the properties to bind metal ions, the abilities of all the compounds in binding metal ions (Cu^II, Fe^III, Zn^II) were studied by UV–vis spectrometry. At first three compounds were chose to test the binding abilities. Upon the addition of CuCl2 or ZnSO4 the maximum absorption suffered a bathochromic shift, pointing out the formation of complex compound–Cu^II. […] […].
(§3) Metal-chelating properties were evaluated by UV–vis spectrometry. To screen the ability of chelating metal ions, the same concentrations of compound and metal ion were mixed in CH3OH/H2O (v/v = 9/1), and the UV–vis spectrum was tested; compared to the compound, the maximum absorption that suffered a bathochromic shift would point out the formation of a complex compound–metal ion. The stoichiometry of the complex compound–metal ion was determined by Job’s method. The affinity of compounds 15–17 as ligands (excepted 15f, 16d, 16g, 16k) for Cu^II or Zn^II were estimated in the CH3OH/H2O solution (v/v = 9/1). Since all the ligands studied L from ML2 species and in accordance with the Beer–Lambert law, complexation reactions can be summarized as 2L+M⇔ML2 with K = 1−α/4C^2α^3 , and α = A/Amax; A was the data of absorption tested when the compound–metal ion = 2/1 under the maximum absorption wavelength of the complex, Amax was the absorption when the compound completely formed a complex with the metal ion; the data can be obtained as an approximation when the metal ion is in excess, and the absorption changes little as the concentration of metal ion still increases.

[4] = Metal chelation by UV–vis spectrometry, stoichiometry and affinity estimate (Zn); assay type: physicochemical; conditions: for LogK Zn (affinity of ligand for Zn^II, ML2): 2L+M⇔ML2; for Maximum absorption of compound–Zn^II complex: bathochromic shift from 246 nm of the free compound
Source text: as §2
(§4) To determine the stoichiometry of the complex compound–Cu^II, the technique of continuous variations (also called Job’s method) was used by preparing solutions of compounds 15a, 17b and CuSO4 so that the sum of concentrations of both species was constant at […] in all samples, but the proportions of both components varied between 0 and 100%. The UV spectra were recorded and the absorbance change at the maximum absorption wavelength of the compound-Cu^II complex, meaning the 15a-Cu^II complex at 264 nm and the 17b-Cu^II at 265 nm, respectively. The absorbance change was plotted versus the mole fraction of the compound, giving two straight lines whose equations were calculated. […] […].
(§5) Since all the ligands studied L from ML2 species and in accordance with the Beer–Lambert law, complexation reactions can be summarized as 2L+M⇔ML2 with K = 1−α/4C^2α^3 , and α can be calculated from the data of the absorption.
as §3

[5] = Metal chelation by UV–vis spectrometry, Job's method and affinity estimate (Cu); assay type: physicochemical; conditions: for LogK Cu (affinity of ligand for Cu^II, ML2): 2L+M⇔ML2; for Mole fraction of compound at the intersection of the Job plot (Cu^II): Job's method, CuSO4, sum of concentrations 20 μm; for Maximum absorption of compound–Cu^II complex: bathochromic shift from 246 nm of the free compound
Source text: as §2, §4, §5, §3

T2 sequence (O42275 24-633): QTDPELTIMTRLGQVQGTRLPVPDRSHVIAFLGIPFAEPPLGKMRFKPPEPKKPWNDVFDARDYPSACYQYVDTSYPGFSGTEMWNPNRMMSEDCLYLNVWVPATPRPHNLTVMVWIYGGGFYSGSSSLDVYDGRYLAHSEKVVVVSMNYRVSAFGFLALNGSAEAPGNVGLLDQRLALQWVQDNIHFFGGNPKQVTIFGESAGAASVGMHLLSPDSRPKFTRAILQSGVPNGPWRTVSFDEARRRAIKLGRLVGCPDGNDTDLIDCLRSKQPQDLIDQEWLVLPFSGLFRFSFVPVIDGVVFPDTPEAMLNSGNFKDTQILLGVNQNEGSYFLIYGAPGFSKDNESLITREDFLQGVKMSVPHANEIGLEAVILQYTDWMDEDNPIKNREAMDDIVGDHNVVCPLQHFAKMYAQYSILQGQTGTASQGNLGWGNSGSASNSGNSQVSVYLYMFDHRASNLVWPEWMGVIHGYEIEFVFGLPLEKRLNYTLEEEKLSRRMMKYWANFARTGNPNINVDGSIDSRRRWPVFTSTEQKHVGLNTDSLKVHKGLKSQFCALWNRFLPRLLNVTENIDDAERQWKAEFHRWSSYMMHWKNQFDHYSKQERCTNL
T3 sequence (P05067 672-713): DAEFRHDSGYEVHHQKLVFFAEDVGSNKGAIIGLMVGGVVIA
T1 sequence (P81908 whole entry): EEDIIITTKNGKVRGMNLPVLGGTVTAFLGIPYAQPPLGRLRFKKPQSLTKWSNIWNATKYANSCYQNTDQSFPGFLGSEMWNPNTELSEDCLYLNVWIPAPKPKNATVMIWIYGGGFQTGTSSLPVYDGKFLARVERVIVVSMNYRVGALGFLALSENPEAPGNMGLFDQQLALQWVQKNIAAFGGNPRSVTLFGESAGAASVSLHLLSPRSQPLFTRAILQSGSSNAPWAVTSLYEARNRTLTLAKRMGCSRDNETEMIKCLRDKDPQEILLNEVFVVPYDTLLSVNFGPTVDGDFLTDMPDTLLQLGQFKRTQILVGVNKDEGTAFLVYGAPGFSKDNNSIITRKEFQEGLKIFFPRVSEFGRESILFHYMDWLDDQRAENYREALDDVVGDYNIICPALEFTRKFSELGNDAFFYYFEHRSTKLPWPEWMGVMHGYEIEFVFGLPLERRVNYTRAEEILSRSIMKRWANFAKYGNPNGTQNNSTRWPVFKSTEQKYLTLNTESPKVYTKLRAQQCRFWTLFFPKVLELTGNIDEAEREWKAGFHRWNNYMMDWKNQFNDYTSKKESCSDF

SMILES | IC50 [1] [µM] | IC50 [2] [µM] | Selectivity Index = IC50 (AChE)/IC50 (BuChE) [2] | inhibition at 20 µM (Aβ1–42) [%] | Complex formation with Fe^III (UV–vis shift) [3] | LogK Zn (affinity of ligand for Zn^II, ML2) ([4]; CH3OH/H2O (v/v = 9/1)) | Maximum absorption of compound–Zn^II complex [4] | LogK Cu (affinity of ligand for Cu^II, ML2) ([5]; CH3OH/H2O (v/v = 9/1), UV–vis) | Mole fraction of compound at the intersection of the Job plot (Cu^II) [5] | Maximum absorption of compound–Cu^II complex ([5]; UV–vis) [nm] | Complex formation with Zn^II (UV–vis shift / binding) ([4]; CH3OH/H2O (v/v = 9/1)) | Complex formation with Cu^II (UV–vis shift / binding) ([5]; UV–vis, CH3OH/H2O (v/v = 9/1))
O=C(CN1CCN(Cc2ccc3cccc(O)c3n2)CC1)Nc1c2c(nc3ccccc13)CCCC2 [Compound 15a, 2-(4-((8-Hydroxyquinolin-2-yl)methyl)piperazin-1-yl)-N-(1,2,3,4-tetrahydroacridin-9-yl)acetamide] | 7.74 ± 0.89 | 2.02 ± 0.12 | 0.26 | 46.8 ± 4.1 | no reliable shift | 9.91 | 266 nm and 262 nm | 10.14 | around 0.7 | 264 | – | –
Nc1cccc2ccc(CN3CCN(CCCNc4c5c(nc6ccccc46)CCCC5)CC3)nc12 [Compound 16g, N-(3-(4-((8-aminoquinolin-2-yl)methyl)piperazin-1-yl)propyl)-1,2,3,4-tetrahydroacridin-9-amine] | 0.018 ± 0.003 | 0.052 ± 0.001 | 2.89 | 94.6 ± 4.2 | no reliable shift | – | – | – | – | – | no reliable shift | no reliable shift
Oc1ccc(Cl)c2ccc(CN3CCN(CCCCCNc4c5c(nc6ccccc46)CCCC5)CC3)nc12 [Compound 16j, 5-Chloro-2-((4-(5-((1,2,3,4-tetrahydroacridin-9-yl)amino)pentyl)piperazin-1-yl)methyl)quinolin-8-ol] | 0.045 ± 0.011 | 0.13 ± 0.02 | 2.89 | 74.8 ± 4.7 | – | 9.65 | – | 9.96 | – | – | – | –
O=C(CN1CCN(Cc2ccc(O)c3ncccc23)CC1)Nc1c2c(nc3ccccc13)CCCC2 [Compound 17a, 2-(4-((8-Hydroxyquinolin-5-yl)methyl)piperazin-1-yl)-N-(1,2,3,4-tetrahydroacridin-9-yl)acetamide] | 4.13 ± 0.1 | 4.46 ± 0.33 | 1.08 | 24.6 ± 3.7 | – | 9.67 | – | 9.50 | – | – | – | –
Cc1ccc2c(CN3CCN(CC(=O)Nc4c5c(nc6ccccc46)CCCC5)CC3)ccc(O)c2n1 [Compound 17b, 2-(4-((8-Hydroxy-2-methylquinolin-5-yl)methyl)piperazin-1-yl)-N-(1,2,3,4-tetrahydroacridin-9-yl)acetamide] | 4.39 ± 0.27 | 2.53 ± 0.2 | 0.58 | 23.3 ± 3.2 | no reliable shift | 9.71 | 262 nm | 9.42 | around 0.7 | 265 | – | –
